The values that follow come from publication PMC4192545, “Suramin Inhibits Hsp104 ATPase and Disaggregase Activity” (PLoS ONE, 2014).

For one assay, the target named is T1, Hsp104 (Saccharomyces cerevisiae, UniProt P31539).
T1 construct: made in house; host or cells: E. coli BL21-DE3 RIL
The assay is described as follows: High-throughput Hsp104 ATPase plate assay (malachite green, 384-well). In kind it is biochemical, yeast. Particulars: 60 min. As for the experimental part:
ATPase activity was assessed by the release of inorganic phosphate determined using a malachite green phosphate detection kit (Innova Biosciences, Cambridge, United Kingdom). Microtiter plates (384-well) were purchased from PerkinElmer (Waltham, MA). Three libraries were screened: The NIH Clinical Collection (450 small molecules), the Spectrum Collection (2,000 compounds, MicroSource, Gaylordsville, CT) and the HitFinder Collection (14,400 compounds, Maybridge).
We adapted the inorganic phosphate colorimetric assay to fit a 384-well plate format. A Ź-factor between 0.8 and 1 was calculated for the assay. A 2X Hsp104 stock solution was dispensed into each well using a Biotek microflo (Biotek Instruments, Winooski, VT). Compounds were then transferred using a Janus 96/384 Modular Dispensing Tool (PerkinElmer). Finally, a 2X ATP solution was dispensed using the Biotek microflo. Final concentrations of Hsp104 (monomer) and ATP were 0.25 µM and 1 mM respectively. Seeking to avoid the discovery of competitive inhibitors, we designed our high-throughput screen to use a 100-fold excess of ATP with respect to the test compounds (10 µM each). Final buffer conditions were 20 mM HEPES-KOH pH 7.4, 20 mM NaCl and 10 mM MgCl2. The ATPase reaction was allowed to continue for 60 min, at which time the reaction was terminated by addition of the colorimetric reagent. Absorbance was measured at 635 nm on an EnVision Xcite Multilabel plate reader (PerkinElmer). Hits were tested in duplicate. […] Ten of these were subjected to a 6-point titration (40, 13.3, 4.44, 1.45, 0.49 and 0 µM) in the absence or presence of Triton X-100, BSA, or both Triton X-100 and BSA at the specified concentrations. Heat maps were created in Excel for Mac 2011 (Microsoft Corporation) using the Conditional Formatting feature (Color Scales).
We aimed to identify small molecules capable of inhibiting Hsp104. To do so, we employed high-throughput screening using Hsp104 ATPase activity as a proxy for function. To detect changes in Hsp104 ATPase activity, we used a colorimetric assay detecting free inorganic phosphate (Pi) based on the formation of a colored complex between Pi and a dye molecule under acidic conditions, [44]. Pi is produced from the Hsp104-driven hydrolysis of ATP. The colored complex concentration, a surrogate for Pi concentration and ATPase rate, is determined by measuring the absorbance of a sample at 635 nm. We used recombinant Hsp104 purified from E. coli. An Hsp104 mutant with mutations in both NBD1 and NBD2 Walker B sequence motifs (Hsp104^DWB, carrying ATPase ablating mutations E285Q: E687Q) was used as a negative control for ATPase activity. Hsp104^WT activity results in a high A635 (high ATPase), while Hsp104^DWB activity results in a low A635 (low ATPase). We optimized the Pi colorimetric assay to fit a 384-well plate format. We selected the Hsp104 concentration (0.25 µM) on the basis of previous experience in our laboratory. The ATP concentration was selected to be in a 100-fold excess of ATP with respect to the test compounds. […] We screened 16,850 compounds from the NIH Clinical Collection as well as the Spectrum and Maybridge compound libraries. […] For instance, hexachlorophene and tannic acid inhibit Hsp104 ATPase activity by ∼80%, while Merbromin and Sennoside a inhibit by ∼20% ( Table 1 ).

In another assay the target is T2, Hsp104^A503V (Saccharomyces cerevisiae, UniProt P31539, A503V).
T2 construct: made in house; host or cells: E. coli BL21-DE3 RIL
The assay is described as follows: ATPase assay, Hsp104^A503V. It counts as biochemical, yeast. As to the method: Wild-type or mutant Hsp104 (0.25 µM monomer) in ATPase buffer (20 mM HEPES-KOH pH 7.4, 20 mM NaCl and 10 mM MgCl2) was incubated for 60 or 10 min at 25°C in the presence of ATP (1 mM) as noted. ATPase activity was assessed by the release of inorganic phosphate determined by using a malachite green phosphate detection kit (Innova).
Figure 7 Hsp104 variants respond differently to Suramin than Hsp104^WT. (A) Hsp104 variants (0.25 µM monomer) were incubated for 10 min with ATP (1 mM) and varying concentrations of Suramin. The amount of Pi produced was measured by absorbance at 635 nm. Absorbance values were normalized to the absorbance produced by each Hsp104 variant in the absence of inhibitor. Values represent mean ±S.D. (n = 6). (B) Urea-denatured firefly luciferase aggregates were incubated for 90 min at 25°C with Hsp104 variants (1 µM hexamer) plus 1∶1 mixtures of ATP and ATPγS (or ATP alone) and varying concentrations of Suramin. Luciferase reactivation was then determined and normalized to untreated disaggregase activity for each variant in the presence of ATPγS: ATP (or ATP alone). 1∶1 mixtures of ATP and ATPγS were used for Hsp104^WT and Hsp104^T317A, while ATP alone was used for Hsp104^A503V and Hsp104^N728A. Values represent mean ±S.D. (n = 6–12).

T2 sequence (P31539 whole entry A503V): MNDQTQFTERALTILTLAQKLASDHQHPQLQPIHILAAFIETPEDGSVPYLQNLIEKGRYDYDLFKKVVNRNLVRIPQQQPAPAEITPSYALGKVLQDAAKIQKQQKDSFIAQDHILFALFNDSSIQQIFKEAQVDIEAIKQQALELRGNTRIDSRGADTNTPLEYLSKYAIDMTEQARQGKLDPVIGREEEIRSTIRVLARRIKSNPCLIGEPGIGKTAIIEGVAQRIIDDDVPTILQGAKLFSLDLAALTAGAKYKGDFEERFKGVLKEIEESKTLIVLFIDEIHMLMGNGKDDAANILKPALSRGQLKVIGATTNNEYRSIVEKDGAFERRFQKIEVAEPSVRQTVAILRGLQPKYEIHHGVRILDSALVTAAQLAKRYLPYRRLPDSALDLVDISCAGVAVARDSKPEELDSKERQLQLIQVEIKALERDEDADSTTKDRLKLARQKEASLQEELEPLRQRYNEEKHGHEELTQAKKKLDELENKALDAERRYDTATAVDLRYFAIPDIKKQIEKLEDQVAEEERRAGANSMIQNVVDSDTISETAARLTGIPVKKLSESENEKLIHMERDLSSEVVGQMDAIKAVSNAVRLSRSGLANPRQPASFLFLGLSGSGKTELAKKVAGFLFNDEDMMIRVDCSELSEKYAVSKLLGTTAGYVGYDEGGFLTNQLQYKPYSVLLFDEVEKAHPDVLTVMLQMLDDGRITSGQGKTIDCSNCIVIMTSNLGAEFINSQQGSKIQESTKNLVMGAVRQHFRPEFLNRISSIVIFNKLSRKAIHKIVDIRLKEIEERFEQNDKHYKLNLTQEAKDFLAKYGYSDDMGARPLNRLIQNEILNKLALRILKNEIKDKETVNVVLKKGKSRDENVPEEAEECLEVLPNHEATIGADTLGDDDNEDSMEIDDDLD
T1 sequence (P31539 whole entry): as the sequence (P31539 whole entry A503V) above, with V503A counted along it

Take `Cc1ccc(C(=O)Nc2ccc(S(=O)(=O)O)c3cc(S(=O)(=O)O)cc(S(=O)(=O)O)c23)cc1NC(=O)c1cccc(NC(=O)Nc2cccc(C(=O)Nc3cc(C(=O)Nc4ccc(S(=O)(=O)O)c5cc(S(=O)(=O)O)cc(S(=O)(=O)O)c45)ccc3C)c2)c1` [Suramin]: the inhibition at 10 µM on Hsp104 (10 µM compound, Hsp104 0.25 µM monomer, ATP 1 mM, mean ±S.D. (n = 2), read-out: % Inhibition of Hsp104 ATP hydrolysis) was found to be 50.8 ± 2.83%. For the same compound, the “Inhibition of Hsp104 ATPase activity in the presence of both Triton X-100 and BSA” value on Hsp104 (titration 40-0.49 µM, Triton X-100 and BSA, heat map Figure 1A) is reported as “most significantly inhibit Hsp104 ATPase activity”. The “Inhibitor concentration of maximal ATPase inhibition” value on Hsp104^A503V (Hsp104^A503V) is 25 µM. In addition, the activity at 25 µM at Hsp104^A503V (read-out: Hsp104^A503V ATPase activity relative to uninhibited) amounted to 18%.
